Where “and” joins values, the source holds several entries; their conditions need not be identical. Equal entries are not always repeated. Toxic doses and inconclusive results are not listed. Rule as the data show it: active = T/C of 150% or more; inactive = T/C below 125%.
System: L1210 leukemia ip in BDF1 mice, survival T/C
Assay: NCI In Vivo Anticancer Drug Screen. Data for tumor model L1210 Leukemia (intraperitoneal) in B6D2F1 (BDF1) mice
Conditions: endpoint: mean survival time, higher = longer survival
Outline: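 Tumor was transplanted into mice, which were then dosed with test compound or vehicle alone. Survival was recorded for each group, and the treated figure was expressed relative to the control figure.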

[1] = dose: 100.0 mg/kg/injection, schedule: Q04DX003 (ip), vehicle: Klucel (hydroxypropylcellulose) (HPC)
[2] = dose: 200.0 mg/kg/injection, schedule: Q04DX003 (ip), vehicle: Klucel (hydroxypropylcellulose) (HPC)
[3] = dose: 400.0 mg/kg/injection, schedule: Q04DX003 (ip), vehicle: Klucel (hydroxypropylcellulose) (HPC)
[4] = dose: 100.0 mg/kg/injection, schedule: Q01DX009 (ip), vehicle: saline with Tween-80
[5] = dose: 200.0 mg/kg/injection, schedule: Q01DX009 (ip), vehicle: saline with Tween-80
[6] = dose: 100.0 mg/kg/injection, schedule: Q04DX003 (ip), vehicle: saline with Tween-80
[7] = dose: 200.0 mg/kg/injection, schedule: Q04DX003 (ip), vehicle: saline with Tween-80
[8] = dose: 400.0 mg/kg/injection, schedule: Q01DX009 (ip), vehicle: saline with Tween-80
[9] = dose: 400.0 mg/kg/injection, schedule: Q04DX003 (ip), vehicle: saline with Tween-80

Measured: T/C

O=[N+]([O-])c1c[c]([Hg][Cl])c(O)[c]([Hg][Cl])c1
inactive: dose: 3.13 mg/kg/injection, schedule: Q01DX009 (ip), vehicle: saline with Tween-80 88 % of control | dose: 3.13 mg/kg/injection, schedule: Q04DX002 (ip), vehicle: saline with Tween-80 107 % of control | dose: 3.13 mg/kg/injection, schedule: Q04DX003 (ip), vehicle: saline with Tween-80 88 % of control | dose: 6.25 mg/kg/injection, schedule: Q01DX009 (ip), vehicle: saline with Tween-80 86 % of control | dose: 6.25 mg/kg/injection, schedule: Q04DX002 (ip), vehicle: saline with Tween-80 96 % of control | dose: 6.25 mg/kg/injection, schedule: Q04DX003 (ip), vehicle: saline with Tween-80 97 % of control | dose: 12.5 mg/kg/injection, schedule: Q01DX009 (ip), vehicle: saline with Tween-80 91 % of control | dose: 12.5 mg/kg/injection, schedule: Q04DX002 (ip), vehicle: saline with Tween-80 93 % of control | dose: 12.5 mg/kg/injection, schedule: Q04DX003 (ip), vehicle: saline with Tween-80 87 % of control

CCCCOP(=O)(OCCCC)N(C)c1ccccc1
inactive: dose: 25.0 mg/kg/injection, schedule: Q04DX002 (ip), vehicle: saline with Tween-80 89 % of control | dose: 50.0 mg/kg/injection, schedule: Q04DX002 (ip), vehicle: saline with Tween-80 95 % of control | dose: 100.0 mg/kg/injection, schedule: Q04DX002 (ip), vehicle: saline with Tween-80 92 % of control and 93 % of control

C#CCCCCCCCCCC(=O)OC
inactive: dose: 100.0 mg/kg/injection, schedule: Q01DX009 (ip), vehicle: Klucel (hydroxypropylcellulose) (HPC) 102 % of control | [1] 103 % of control | dose: 200.0 mg/kg/injection, schedule: Q01DX009 (ip), vehicle: Klucel (hydroxypropylcellulose) (HPC) 102 % of control | [2] 95 % of control | dose: 400.0 mg/kg/injection, schedule: Q01DX009 (ip), vehicle: Klucel (hydroxypropylcellulose) (HPC) 104 % of control | [3] 98 % of control

O=C1c2ccccc2CCC1C1(O)C(=O)Nc2ccccc21 (centres undefined)
inactive: dose: 50.0 mg/kg/injection, schedule: Q01DX009 (ip), vehicle: saline with Tween-80 104 % of control | [4] 101 % of control | [5] 93 % of control

CCOC(=O)C12CC=CC(CCC1)C2=O (centres undefined) (tested in a mixture with another compound)
inactive: [4] 112 % of control | [6] 103 % of control | [5] 101 % of control | [7] 102 % of control | [8] 101 % of control | [9] 105 % of control

CCOC(=O)C(CSCSC)NC(=O)/C=C/c1cccnc1 (centres undefined)
inactive: [4] 101 % of control | [6] 93 % of control | [5] 98 % of control | [7] 97 % of control | [8] 90 % of control | [9] 90 % of control

Nc1nc(N=Nc2ccc(O)cc2)cc(=O)[nH]1
inactive: dose: 50.0 mg/kg/injection, schedule: Q01DX009 (ip), vehicle: other 102 % of control | dose: 100.0 mg/kg/injection, schedule: Q01DX009 (ip), vehicle: other 107 % of control | dose: 100.0 mg/kg/injection, schedule: Q04DX002 (ip), vehicle: other 105 % of control | dose: 200.0 mg/kg/injection, schedule: Q01DX009 (ip), vehicle: other 94 % of control | dose: 200.0 mg/kg/injection, schedule: Q04DX002 (ip), vehicle: other 105 % of control | dose: 400.0 mg/kg/injection, schedule: Q01DX009 (ip), vehicle: other 103 % of control | dose: 400.0 mg/kg/injection, schedule: Q04DX002 (ip), vehicle: other 99 % of control

N=c1nc(N)c([N+](=O)[O-])c(N)n1O
inactive: dose: 100.0 mg/kg/injection, schedule: Q01DX001 (ip), vehicle: carboxymethylcellulose (CMC) 100 % of control | dose: 200.0 mg/kg/injection, schedule: Q01DX001 (ip), vehicle: carboxymethylcellulose (CMC) 97 % of control | dose: 400.0 mg/kg/injection, schedule: Q01DX001 (ip), vehicle: carboxymethylcellulose (CMC) 100 % of control

Cc1c(O)c([N+](=O)[O-])cc2c1OCOC2
inactive: [1] 96 % of control | [2] 102 % of control | [3] 93 % of control

Cc1ccc(CNC(=O)NC(C)(C)C)cc1C
inactive: dose: 100.0 mg/kg/injection, schedule: Q04DX002 (ip), vehicle: Klucel (hydroxypropylcellulose) (HPC) 103 % of control | dose: 200.0 mg/kg/injection, schedule: Q04DX002 (ip), vehicle: Klucel (hydroxypropylcellulose) (HPC) 111 % of control | dose: 400.0 mg/kg/injection, schedule: Q04DX002 (ip), vehicle: Klucel (hydroxypropylcellulose) (HPC) 100 % of control

Reference: PubChem BioAssay AID248 (DTP/NCI, 2004)
